Columns and labels:
Experiment in all cases: combination Emax (second highest fraction inhibited in the dose matrix, 72 h); higher = more inhibition; extreme values may be limits of the assay
[1] = system: BxPC-3 (Pancreatic Carcinoma)
Method in brief: (§1)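 Cell lines in DMEM/F12 or RPMI with 10% FBS were plated in 1536-well plates, held 24 hours at 37°C, 5% CO2, then given two-drug dose matrices for 72 hours (DMSO typically 0.2%). Viability was read by CellTiter-Glo 2.0 luminescence and scaled as inhibition from 0 (vehicle wells) to 1 (blank wells). Combination Emax is the second-highest inhibition in the matrix; Bliss excess is observed combination effect minus expected EA + EB − EA·EB, EA and EB being single-agent effects.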

[2] = system: C-33-A (Cervical Carcinoma)
Method in brief: as §1

[3] = system: COR-L88 (Small Cell Lung Carcinoma)
Method in brief: as §1

ES6 (Ewing's Sarcoma) = system: ES6 (Ewing's Sarcoma)
Method in brief: as §1

GAK (Melanoma) = system: GAK (Melanoma)
Method in brief: as §1

[4] = system: HPAF-II (Pancreatic Carcinoma)
Method in brief: as §1

[5] = system: IA-LM (Non-Small Cell Lung Carcinoma)
Method in brief: as §1

IST-MEL1 (Melanoma) = system: IST-MEL1 (Melanoma)
Method in brief: as §1

KALS-1 (Glioblastoma) = system: KALS-1 (Glioblastoma)
Method in brief: as §1

[6] = system: LCLC-103H (Non-Small Cell Lung Carcinoma)
Method in brief: as §1

[7] = system: MDA-MB-415 (Breast Carcinoma)
Method in brief: as §1

[8] = system: MONO-MAC-6 (Acute Myeloid Leukemia)
Method in brief: as §1

[9] = system: MS-1 (Small Cell Lung Carcinoma)
Method in brief: as §1

[10] = system: NAMALWA (Burkitt's Lymphoma)
Method in brief: as §1

[11] = system: NCI-H3118 (Head and Neck Carcinoma)
Method in brief: as §1

[12] = system: RCC-JW (Kidney Carcinoma)
Method in brief: as §1

[13] = system: SKG-IIIa (Cervical Carcinoma)
Method in brief: as §1

[14] = system: SNU-423 (Hepatocellular Carcinoma)
Method in brief: as §1

[15] = system: T84 (Colorectal Carcinoma)
Method in brief: as §1

[16] = system: ZR-75-30 (Breast Carcinoma)
Method in brief: as §1

| SMILES | combination Emax [1] | combination Emax [2] | combination Emax [3] | combination Emax (ES6 (Ewing's Sarcoma)) | combination Emax (GAK (Melanoma)) | combination Emax [4] | combination Emax [5] | combination Emax (IST-MEL1 (Melanoma)) | combination Emax (KALS-1 (Glioblastoma)) | combination Emax [6] | combination Emax [7] | combination Emax [8] | combination Emax [9] | combination Emax [10] | combination Emax [11] | combination Emax [12] | combination Emax [13] | combination Emax [14] | combination Emax [15] | combination Emax [16] |
| --- | --- | --- | --- | --- | --- | --- | --- | --- | --- | --- | --- | --- | --- | --- | --- | --- | --- | --- | --- | --- |
| Cc1nc(-c2cn3c(n2)-c2ccc(-c4cnn(C(C)(C)C(N)=O)c4)cc2OCC3)n(C(C)C)n1 [Taselisib] + O=C(Nc1ccc2[nH]nc(-c3ccncc3)c2c1)[C@@H]1CCN(CC(=O)N2CCN(c3ccc(-c4ncccn4)cc3)CC2)C1 [SCH772984] (first compound max 10 µM, 7x7, partner max 5 µM) | 0.956 | 0.661 | 0.229 | 0.639 | 0.944 | 0.917 | 0.399 | 0.885 | 0.927 | 0.472 | 0.846 | 0.964 | 0.48 | 0.65 | 0.931 | 0.638 | 0.633 | 0.82 | 0.96 | 0.706 |
| CC1(C)CCC(CN2CCN(c3ccc(C(=O)NS(=O)(=O)c4ccc(NCC5CCOCC5)c([N+](=O)[O-])c4)c(Oc4cnc5[nH]ccc5c4)c3)CC2)=C(c2ccc(Cl)cc2)C1 [Venetoclax] + CS(=O)(=O)CCNCc1ccc(-c2ccc3ncnc(Nc4ccc(OCc5cccc(F)c5)c(Cl)c4)c3c2)o1 [Lapatinib] (first compound max 1 µM, 7x7, partner max 10 µM) | 0.244 | 0.444 | 0.534 | 0.585 | 0.229 | 0.192 | 0.207 | 0.293 | 0.223 | 0.208 | 0.242 | 0.353 | 0.473 | 0.25 | 0.468 | 0.967 | 0.201 | 0.246 | 0.25 | 0.823 |
